Data taken from US20250127914A1, “ANTIBODY-CONJUGATED 8-SULFONYL-BENZAZEPINE COMPOUNDS AND THEIR USES” (BOLT BIOTHERAPEUTICS, INC., priority 2022, published 2025).
pEC50: −log10 of the molar value.

What was measured:
human TLR8 = target: T1, human TLR8 (Homo sapiens, UniProt Q9NR97); assay: HEK Reporter Assay, human TLR8; type: cell-based; conditions: HEK293 NFKB reporter cells expressing human TLR8; read-out: HEK293 hTLR8 EC50
T1 construct: host or cells: HEK293 NF-kB reporter cells
T1 sequence (Q9NR97 27-1041): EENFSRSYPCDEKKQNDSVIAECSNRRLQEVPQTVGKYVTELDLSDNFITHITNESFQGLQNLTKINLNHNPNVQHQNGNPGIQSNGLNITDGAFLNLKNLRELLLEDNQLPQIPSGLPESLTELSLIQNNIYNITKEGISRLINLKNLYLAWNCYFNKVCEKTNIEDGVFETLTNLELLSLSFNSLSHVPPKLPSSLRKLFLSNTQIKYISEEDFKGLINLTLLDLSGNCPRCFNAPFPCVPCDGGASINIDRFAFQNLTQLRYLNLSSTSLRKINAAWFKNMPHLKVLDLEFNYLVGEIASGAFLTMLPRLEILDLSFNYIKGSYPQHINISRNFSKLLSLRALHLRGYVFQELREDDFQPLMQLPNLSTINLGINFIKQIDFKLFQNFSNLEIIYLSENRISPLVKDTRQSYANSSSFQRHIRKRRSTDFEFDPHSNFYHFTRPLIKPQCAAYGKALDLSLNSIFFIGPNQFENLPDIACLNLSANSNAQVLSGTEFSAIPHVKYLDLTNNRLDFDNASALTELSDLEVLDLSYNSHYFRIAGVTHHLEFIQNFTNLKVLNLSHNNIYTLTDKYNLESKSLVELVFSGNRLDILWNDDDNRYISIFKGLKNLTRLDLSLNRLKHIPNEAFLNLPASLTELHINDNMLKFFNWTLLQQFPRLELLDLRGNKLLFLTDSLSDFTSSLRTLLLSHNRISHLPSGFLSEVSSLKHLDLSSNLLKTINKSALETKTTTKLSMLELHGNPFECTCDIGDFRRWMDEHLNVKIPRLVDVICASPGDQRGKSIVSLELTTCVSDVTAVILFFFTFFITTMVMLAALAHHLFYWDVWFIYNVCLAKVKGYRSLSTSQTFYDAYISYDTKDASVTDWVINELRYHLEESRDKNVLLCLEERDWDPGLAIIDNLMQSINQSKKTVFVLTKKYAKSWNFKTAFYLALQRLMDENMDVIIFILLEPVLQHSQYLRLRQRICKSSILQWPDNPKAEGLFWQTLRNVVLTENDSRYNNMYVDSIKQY
Description: (§1) Exemplary 8-sulfonyl-2-aminobenzazepine compounds (8SO2Bz) of the invention were synthesized, purified, and characterized by mass spectrometry and shown to have the expected mass. Additional experimental procedures are found in the Examples. Activity against HEK293 NFKB reporter cells expressing human TLR7 or human TLR8 was measured according to Example 202.
(§2) HEK293 reporter cells expressing human TLR7 or human TLR8 were purchased from Invivogen and vendor protocols were followed for cellular propagation and experimentation. Briefly, cells were grown to 80-85% confluence at 5% CO2 in DMEM supplemented with 10% FBS, Zeocin, and Blasticidin. Cells were then seeded in 96-well flat plates at 4×10^4 cells/well with substrate containing HEK detection medium and immunostimulatory molecules. Activity was measured using a plate reader at 620-655 nm wavelength.

human TLR7 = target: T2, human TLR7 (Homo sapiens, UniProt Q9NYK1); assay: HEK Reporter Assay, human TLR7; type: cell-based; conditions: HEK293 NFKB reporter cells expressing human TLR7; read-out: HEK293 hTLR7 EC50
T2 construct: host or cells: HEK293 NF-kB reporter cells
T2 sequence (Q9NYK1 27-1049): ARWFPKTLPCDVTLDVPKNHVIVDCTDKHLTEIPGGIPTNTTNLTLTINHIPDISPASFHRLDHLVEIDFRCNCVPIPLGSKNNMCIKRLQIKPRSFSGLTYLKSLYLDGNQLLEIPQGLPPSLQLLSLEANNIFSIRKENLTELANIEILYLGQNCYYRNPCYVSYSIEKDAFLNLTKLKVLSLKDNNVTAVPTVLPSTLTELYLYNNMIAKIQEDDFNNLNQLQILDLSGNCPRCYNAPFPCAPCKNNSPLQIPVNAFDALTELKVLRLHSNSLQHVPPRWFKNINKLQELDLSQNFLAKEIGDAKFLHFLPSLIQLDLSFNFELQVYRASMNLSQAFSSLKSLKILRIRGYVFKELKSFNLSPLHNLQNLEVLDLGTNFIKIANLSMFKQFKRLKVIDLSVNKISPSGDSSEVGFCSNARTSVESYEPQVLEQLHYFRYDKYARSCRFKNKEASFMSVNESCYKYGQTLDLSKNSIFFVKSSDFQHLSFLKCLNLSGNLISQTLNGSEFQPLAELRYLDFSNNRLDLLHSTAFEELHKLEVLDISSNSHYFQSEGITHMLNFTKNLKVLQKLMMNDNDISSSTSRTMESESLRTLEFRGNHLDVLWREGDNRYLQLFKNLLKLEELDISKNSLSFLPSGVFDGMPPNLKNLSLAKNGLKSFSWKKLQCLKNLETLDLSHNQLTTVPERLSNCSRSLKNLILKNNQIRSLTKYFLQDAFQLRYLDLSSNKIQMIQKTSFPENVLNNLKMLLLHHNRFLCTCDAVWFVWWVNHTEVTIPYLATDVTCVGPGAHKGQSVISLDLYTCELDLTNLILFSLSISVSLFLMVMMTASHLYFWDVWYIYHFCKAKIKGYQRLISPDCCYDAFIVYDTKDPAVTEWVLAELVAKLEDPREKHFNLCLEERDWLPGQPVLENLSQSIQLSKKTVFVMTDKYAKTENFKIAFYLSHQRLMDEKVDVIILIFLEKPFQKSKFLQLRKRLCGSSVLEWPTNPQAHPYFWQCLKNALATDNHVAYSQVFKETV
Description: as §1, §2

SMILES: CCCN(OCC)C(=O)C1=Cc2ccc(S(=O)(=O)c3ccc(C(=O)OC)cc3)cc2N=C(N)C1
- pEC50 (human TLR8): 5.98

SMILES: CCCN(OCCNC(=O)OC(C)(C)C)C(=O)C1=Cc2ccc(S(=O)(=O)N(C)C)cc2N=C(N)C1 [Immunoconjugate 8SO2Bz-2]
- pEC50 (human TLR7): 6.40
- pEC50 (human TLR8): > 8.64

SMILES: CCCN(OCC)C(=O)C1=Cc2ccc(S(=O)(=O)NC)cc2N=C(N)C1 [Immunoconjugate 8SO2Bz-3]
- pEC50 (human TLR8): 6.69
